According to ChEMBL document CHEMBL1201862, “PubChem BioAssay data set” (2004):
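Values below derive from 48-hour exposures of cells grown in 96-well plates, with endpoints linearly interpolated between the two concentrations bracketing the appropriate inhibition level. The concentration for 50% growth inhibition is given as GI50.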 The source made the active and inactive calls. Rule as the data show it: active = GI50 up to about 1.1 µM and inactive = higher.

Experiments:
Test in all cases: inhibition of tumour cell growth, NCI panel, 48 h
TK-10 = test system: TK-10
DU-145 = test system: DU-145
U-251 = test system: U-251
HCT-116 = test system: HCT-116
HCT-15 = test system: HCT-15
Hs-578T = test system: Hs-578T
SNB-19 = test system: SNB-19
KM12 = test system: KM12
OVCAR-4 = test system: OVCAR-4
COLO 205 = test system: COLO 205
EKVX = test system: EKVX
ACHN = test system: ACHN
MOLT-4 = test system: MOLT-4
NCI/ADR-RES = test system: NCI/ADR-RES
UO-31 = test system: UO-31
CCRF-CEM = test system: CCRF-CEM
BT-549 = test system: BT-549
SR = test system: SR

Row | Structure (SMILES) | GI50 (TK-10) | GI50 (DU-145) | GI50 (U-251) | GI50 (HCT-116) | GI50 (HCT-15) [µM] | GI50 (Hs-578T) | GI50 (SNB-19) | GI50 (KM12) | GI50 (OVCAR-4) | GI50 (COLO 205) | GI50 (EKVX) | GI50 (ACHN) | GI50 (MOLT-4) | GI50 (NCI/ADR-RES) | GI50 (UO-31) | GI50 (CCRF-CEM) | GI50 (BT-549) | GI50 (SR)
1 | COC(=O)C1Cc2c([nH]c3ccccc23)-c2[nH]c3ccccc3c2CC(NC(C)=O)C(=O)NCC(=O)N1 (stereo not drawn) | > 100 µM (inactive) | > 100 µM (inactive) | > 100 µM (inactive) | > 100 µM (inactive) | > 100 | > 100 µM (inactive) | > 100 µM (inactive) | > 100 µM (inactive) | > 100 µM (inactive) | > 100 µM (inactive) | > 100 µM (inactive) | > 100 µM (inactive) | > 100 µM (inactive) | > 100 µM (inactive) | > 100 µM (inactive) | > 100 µM (inactive) | – | –
2 | CC(C)C1/C(=N/O)CC(c2ccccc2)N(N=O)C1c1ccccc1 (stereo not drawn) | 62.2 µM (inactive) | 34 µM (inactive) | 52.7 µM (inactive) | 28.5 µM (inactive) | 40.6 | 17.5 µM (inactive) | > 100 µM (inactive) | 31.8 µM (inactive) | 22.8 µM (inactive) | 16.9 µM (inactive) | 20.9 µM (inactive) | 36.4 µM (inactive) | 32.3 µM (inactive) | 35.1 µM (inactive) | 33.3 µM (inactive) | 26.9 µM (inactive) | 50.2 µM (inactive) | –
3 | O=C1NC(=S)NC1C(Cc1ccccc1)c1ccco1 (stereo not drawn) | > 100 µM (inactive) | > 100 µM (inactive) | > 100 µM (inactive) | > 100 µM (inactive) | > 100 | > 100 µM (inactive) | > 100 µM (inactive) | > 100 µM (inactive) | > 100 µM (inactive) | > 100 µM (inactive) | > 100 µM (inactive) | > 100 µM (inactive) | 81.7 µM (inactive) | > 100 µM (inactive) | > 100 µM (inactive) | 68.2 µM (inactive) | – | 75.3 µM (inactive)
4 | CSC1=N/C(=C\c2ccccc2)C(=O)N1CN1CCOCC1 | > 100 µM (inactive) | 96.2 µM (inactive) | 64.4 µM (inactive) | 39.4 µM (inactive) | 33.3 | 47.5 µM (inactive) | 52.5 µM (inactive) | 93.5 µM (inactive) | 28.2 µM (inactive) | 54.5 µM (inactive) | 50.6 µM (inactive) | 38.9 µM (inactive) | 64.6 µM (inactive) | 17.1 µM (inactive) | 38.3 µM (inactive) | 36 µM (inactive) | – | 43.6 µM (inactive)
5 | Cc1cc(O)c2c(c1)C(C1OC(CO)C(O)C(O)C1O)c1cc(O)cc(O)c1C2=O (stereo not drawn) | > 100 µM (inactive) | > 100 µM (inactive) | > 100 µM (inactive) | > 100 µM (inactive) | > 100 | – | > 100 µM (inactive) | – | > 100 µM (inactive) | > 100 µM (inactive) | > 100 µM (inactive) | > 100 µM (inactive) | > 100 µM (inactive) | > 100 µM (inactive) | > 100 µM (inactive) | > 100 µM (inactive) | > 100 µM (inactive) | > 100 µM (inactive)
6 | CCN1C(=O)C(=C/C=C/c2ccc([N+](=O)[O-])cc2)C(=O)N(CC)C1=S | 19.4 µM (inactive) | 17.6 µM (inactive) | 18.5 µM (inactive) | 17.6 µM (inactive) | 29.5 | 15.3 µM (inactive) | 37.9 µM (inactive) | 22.3 µM (inactive) | 33 µM (inactive) | 35.1 µM (inactive) | 21 µM (inactive) | 18.1 µM (inactive) | 29.6 µM (inactive) | 19.5 µM (inactive) | 18.8 µM (inactive) | 31.8 µM (inactive) | 16.5 µM (inactive) | –
7 | O=S(=O)(c1cc(Cl)ccc1Cl)N1CCN(c2cccc(Cl)c2)CC1 | > 100 µM (inactive) | > 100 µM (inactive) | > 100 µM (inactive) | > 100 µM (inactive) | > 100 | > 100 µM (inactive) | > 100 µM (inactive) | > 100 µM (inactive) | > 100 µM (inactive) | – | > 100 µM (inactive) | > 100 µM (inactive) | > 100 µM (inactive) | – | > 100 µM (inactive) | > 100 µM (inactive) | > 100 µM (inactive) | > 100 µM (inactive)
8 | CC1=CC(C)C/C=C/C2C3OC3(C)C(C)C3C(Cc4c[nH]c5ccccc45)NC(=O)C23C(=O)C=CC(=O)C1O (stereo not drawn) | 1.53 µM (inactive) | 14.1 µM (inactive) | 16.4 µM (inactive) | 2.95 µM (inactive) | 2.26 | 3.72 µM (inactive) | 11 µM (inactive) | 15.2 µM (inactive) | 11.8 µM (inactive) | 0.354 µM (active) | 1.19 µM (inactive) | 1.35 µM (inactive) | 2.01 µM (inactive) | 24.3 µM (inactive) | 1.96 µM (inactive) | 0.247 µM (active) | 4.56 µM (inactive) | –
9 | CCCCCCSCC/C(C)=N\OC | > 100 µM (inactive) | > 100 µM (inactive) | > 100 µM (inactive) | > 100 µM (inactive) | > 100 | – | > 100 µM (inactive) | > 100 µM (inactive) | > 100 µM (inactive) | > 100 µM (inactive) | > 100 µM (inactive) | > 100 µM (inactive) | > 100 µM (inactive) | > 100 µM (inactive) | > 100 µM (inactive) | > 100 µM (inactive) | > 100 µM (inactive) | –
10 | CCCN1C(=O)CC(C)N(Cc2ccccc2Cl)C1=S (stereo not drawn) | 25 µM (inactive) | 26.4 µM (inactive) | 24 µM (inactive) | 24.7 µM (inactive) | 35.2 | 30.8 µM (inactive) | 46.1 µM (inactive) | 28.9 µM (inactive) | 43.7 µM (inactive) | 16.9 µM (inactive) | 27.9 µM (inactive) | 24.5 µM (inactive) | 28.2 µM (inactive) | 21.2 µM (inactive) | – | 44.5 µM (inactive) | 24.4 µM (inactive) | –
11 | CC(CCC#N)(CCC#N)C(=O)CC(O)(C(F)(F)F)C(F)(F)F | 7.71 µM (inactive) | 11.4 µM (inactive) | 9.16 µM (inactive) | 2.8 µM (inactive) | 2.28 | 15.3 µM (inactive) | 23.7 µM (inactive) | 18.1 µM (inactive) | 5.02 µM (inactive) | 2.28 µM (inactive) | 20.7 µM (inactive) | 4.13 µM (inactive) | 0.547 µM (active) | 5.94 µM (inactive) | 4.08 µM (inactive) | 1.54 µM (inactive) | – | 1.4 µM (inactive)
12 | Cc1[nH]n(-c2nc(O)c(C)c(=O)[nH]2)c(=O)c1CCO | > 100 µM (inactive) | > 100 µM (inactive) | > 100 µM (inactive) | > 100 µM (inactive) | > 100 | > 100 µM (inactive) | > 100 µM (inactive) | > 100 µM (inactive) | > 100 µM (inactive) | > 100 µM (inactive) | > 100 µM (inactive) | > 100 µM (inactive) | > 100 µM (inactive) | – | > 100 µM (inactive) | > 100 µM (inactive) | > 100 µM (inactive) | –
13 | CC1=NNC(=O)C1C1CC(c2c[nH]c3ccccc23)=NN=C1Cl (stereo not drawn) | > 100 µM (inactive) | > 100 µM (inactive) | 43.6 µM (inactive) | 44.3 µM (inactive) | 35.8 | 61.8 µM (inactive) | 40.9 µM (inactive) | 21.9 µM (inactive) | – | 28.1 µM (inactive) | 70.8 µM (inactive) | 86.1 µM (inactive) | 24.2 µM (inactive) | > 100 µM (inactive) | 31.2 µM (inactive) | 25.8 µM (inactive) | 37 µM (inactive) | –
14 | O=C(N/N=C(COc1ccccc1)\N=C\c1ccncc1)c1ccncc1 | > 100 µM (inactive) | > 100 µM (inactive) | > 100 µM (inactive) | > 100 µM (inactive) | > 100 | > 100 µM (inactive) | > 100 µM (inactive) | > 100 µM (inactive) | > 100 µM (inactive) | > 100 µM (inactive) | > 100 µM (inactive) | > 100 µM (inactive) | 82 µM (inactive) | > 100 µM (inactive) | – | > 100 µM (inactive) | > 100 µM (inactive) | –
15 | CC(C)(CO)NC(=O)Nc1c(C(F)(F)F)cc(-c2ccccc2)[nH]c1=O | > 100 µM (inactive) | > 100 µM (inactive) | > 100 µM (inactive) | > 100 µM (inactive) | > 100 | > 100 µM (inactive) | > 100 µM (inactive) | > 100 µM (inactive) | – | > 100 µM (inactive) | > 100 µM (inactive) | > 100 µM (inactive) | > 100 µM (inactive) | > 100 µM (inactive) | > 100 µM (inactive) | > 100 µM (inactive) | > 100 µM (inactive) | –
16 | COC(=O)[C@]12CSC[C@H]1C[C@H](c1cccc3ccccc13)N2 | – | 27.8 µM (inactive) | 69.8 µM (inactive) | 51.6 µM (inactive) | > 100 | – | > 100 µM (inactive) | > 100 µM (inactive) | – | > 100 µM (inactive) | > 100 µM (inactive) | 39.4 µM (inactive) | 18.2 µM (inactive) | > 100 µM (inactive) | > 100 µM (inactive) | 30.2 µM (inactive) | > 100 µM (inactive) | 37.8 µM (inactive)
17 | COc1ccc(NC(=O)c2cc(NC(=O)/C=C/c3ccccc3)c(OC)c(OC)c2)cc1 | > 100 µM (inactive) | 16.3 µM (inactive) | 8.91 µM (inactive) | 2.48 µM (inactive) | 3.99 | 43.5 µM (inactive) | 61.1 µM (inactive) | 3.83 µM (inactive) | 53 µM (inactive) | 22.5 µM (inactive) | 54.2 µM (inactive) | 4.5 µM (inactive) | 6 µM (inactive) | 28.5 µM (inactive) | 1.98 µM (inactive) | 7 µM (inactive) | – | 4.03 µM (inactive)
